Measured values: patent publication US6133263A, “Endothelin antagonists with ether-linked groups” (Warner-Lambert Company, priority 1998, dated 2000)
Read-outs that look alike come from different tables or passages of the source. One block for each compound: values may come before it. Where a SMILES comes first, the peptide text is derived from it. [ ]: non-standard residue; d: D form.

How the values were obtained:
human ETA R = target: T1, human ETA R (Homo sapiens, UniProt P25101); experiment: [125I]-ET-1 radioligand binding assay, Ltk- cells expressing human ETA R (HERBA-A); conditions: Ltk- cell membranes, [125I]-ET-1 40 pM, 2 hours at 37° C
T1 sequence (P25101 21-427): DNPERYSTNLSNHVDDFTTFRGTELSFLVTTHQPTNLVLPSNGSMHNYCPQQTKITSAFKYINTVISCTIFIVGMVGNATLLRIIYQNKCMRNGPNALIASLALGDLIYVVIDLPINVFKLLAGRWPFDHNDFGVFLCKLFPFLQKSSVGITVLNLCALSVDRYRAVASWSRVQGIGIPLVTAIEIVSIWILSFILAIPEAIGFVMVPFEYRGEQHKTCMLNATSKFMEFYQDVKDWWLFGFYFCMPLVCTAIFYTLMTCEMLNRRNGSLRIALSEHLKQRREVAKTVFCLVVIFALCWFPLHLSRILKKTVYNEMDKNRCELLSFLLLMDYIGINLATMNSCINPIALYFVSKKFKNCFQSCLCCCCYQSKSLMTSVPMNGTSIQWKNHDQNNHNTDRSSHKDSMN

human ETB R = target: T2, human ETB R (Homo sapiens, UniProt P24530); experiment: [125I]-ET-1 radioligand binding assay, CHO-K1 cells expressing recombinant human ETB R (HERBA-B); conditions: CHO cell membranes, [125I]-ET-1 40 pM, 2 hours at 37° C
T2 construct: expressed in transfected cells; host or cells: CHO-K1 cells, membranes
T2 sequence (P24530 27-442): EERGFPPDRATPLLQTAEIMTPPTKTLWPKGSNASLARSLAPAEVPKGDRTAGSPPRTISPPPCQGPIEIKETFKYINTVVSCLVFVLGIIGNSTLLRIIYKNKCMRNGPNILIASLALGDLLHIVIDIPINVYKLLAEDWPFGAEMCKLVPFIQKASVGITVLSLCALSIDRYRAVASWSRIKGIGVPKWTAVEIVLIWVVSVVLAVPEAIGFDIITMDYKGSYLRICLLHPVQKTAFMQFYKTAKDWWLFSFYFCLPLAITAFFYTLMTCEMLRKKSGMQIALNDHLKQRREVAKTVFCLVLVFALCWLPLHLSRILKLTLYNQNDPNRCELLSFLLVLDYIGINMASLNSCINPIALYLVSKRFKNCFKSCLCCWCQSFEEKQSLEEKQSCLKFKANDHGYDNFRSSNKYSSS
Description: The compounds of Formula I are valuable as antagonists of endothelin.
The following radioligand binding assays were used (Reynolds E. E.; Keiser J. A.; Haleen S. J.; Walker D. M.; Davis L. S.; Olszewski B.; Taylor D. G.; Hwang O.; Welch K. M.; Flynn M. A.; Thompson D. M.; et. al., J. Pharmacol. Exp. Ther., 1995;273:1410-1417).
The following cultured cells were used in binding experiments: CHO-KL cells expressing recombinant human ETB R (HERBA B), or Ltk- cells expressing human ETA R (HERBA A). […] Membranes were prepared from cultured cells by lysing cells in cold lysis buffer (5 mM HEPES, 2 mM EDTA, pH 7.4) and homogenizing with a Dounce "A" homogenizer. All of the homogenates were centrifuged at 30,000×g for 20 minutes at 4° C. Membrane pellets were resuspended in cold buffer containing 20 mM Tris, […], 200 μM Pefablock, 10 μM phosphoramidon, 10 μM leupeptin, and 1 μM pepstatin (pH 7.4) and frozen at -80° C. until use. Radioligand and competing ligands were prepared in binding buffer containing 20 mM Tris, 2 mM EDTA, and 0.1% BSA.
Competition binding assays were initiated by combining membranes, [^125 ]-ET-1 (40 pM) and competing ligand in a final volume of 250 μL and incubating for 2 hours at 37° C. The assay was terminated by filtration over Whatman GF/B filters that were presoaked with 50 mM Tris, pH 7.4, containing 0.2% BSA and 100 μM bacitracin. […] was defined as total binding minus nonspecific binding. Specific binding was analyzed by nonlinear least squared curve fitting (InPlot, GraphPad Software, San Diego, Calif.), and the estimated IC50 value was used to calculate Ki according to the method of Cheng and Prusoff (1973).

[1] = tested on: endothelin-stimulated arachidonic acid release in rabbit renal artery vascular smooth muscle cells; experiment: inhibition of ET-1 stimulated arachidonic acid release (AAR) in cultured rabbit renal artery vascular smooth muscle cells; type: cell-based; conditions: Oryctolagus cuniculus, 0.5 h, read-out: AAR-A
neointima formation = conditions: rats, carotid artery balloon angioplasty; cited from earlier work
[2] = oral; cited from earlier work
[3] = tested on: ET-1 induced bronchoconstriction and tracheal smooth muscle contraction; conditions: allergic sheep; cited from earlier work
[4] = tested on: pulmonary vascular resistance and pulmonary arterial pressure; conditions: rat hypoxia model of hypertension; cited from earlier work
cerebral vasospasm [5] = conditions: in vivo; cited from earlier work
chronic heart failure = conditions: patients with chronic heart failure; cited from earlier work
acute renal ischemia = conditions: models of acute renal ischemia; cited from earlier work
[6] = tested on: ET-1-induced changes in gastric mucosal hemodynamics and gastric ulceration; conditions: in vivo; cited from earlier work
prostate smooth muscle = conditions: in vivo; cited from earlier work
[7] = tested on: ischemic damage in the cerebral hemisphere; conditions: cats, middle cerebral artery occlusion, IV; cited from earlier work
cerebral vasospasm [8] = conditions: rat; cited from earlier work
ischemic brain injury = conditions: rats, oral; cited from earlier work
[9] = tested on: vasoconstriction of the basilar artery; conditions: after 7 days, canine two-hemorrhage model of SAH; cited from earlier work

Compound: COc1ccc(C2(OCCCS(=O)(=O)O)OC(=O)C(c3ccc4c(c3)OCO4)=C2Cc2cc(OC)c(OC)c(OC)c2)cc1 (centres unmarked)
IC50 (human ETA R): 0.15 nM
IC50 (human ETB R): 1900 nM
IC50 [1]: 0.3 nM

Compound: CCCOc1ccc2c(c1)C(c1ccc(OC)cc1OCC(=O)O)C(C(=O)O)C2c1ccc2c(c1)OCO2 (single isomer, unassigned) [SB 209670]
neointima formation (neointima formation): found to ameliorate neointima formation

Compound: Cc1noc(NS(=O)(=O)c2cccc3c(N(C)C)cccc23)c1C [5-(Dimethylamino)-N-(3,4-dimethyl-5-isoxazolyl)-1-naphthalenesulfonamide]
antihypertensive effect [2]: demonstrated an oral antihypertensive effect

Compound: CC(C)C[C@@H]1NC(=O)[C@@H](C(C)C)NC(=O)[C@@H]2CCCN2C(=O)[C@@H](CC(=O)O)NC(=O)[C@@H](Cc2c[nH]c3ccccc23)NC1=O [BQ-123] (cyclo(L[dW][dD]P[dV]))
ET-1 induced bronchoconstriction and tracheal smooth muscle contraction [3]: shown to block ET-1 induced bronchoconstriction and tracheal smooth muscle contraction
protection / increase in pulmonary vascular resistance and pulmonary arterial pressure [4]: provide protection in a rat hypoxia model of hypertension
early cerebral vasospasm following SAH (cerebral vasospasm [5]): shown to prevent early cerebral vasospasm

Compound: COc1ccccc1Oc1c(NS(=O)(=O)c2ccc(C(C)(C)C)cc2)nc(-c2ncccn2)nc1OCCO [Bosentan]
cardiac performance (chronic heart failure): found to improve cardiac performance
protection / increase in pulmonary vascular resistance and pulmonary arterial pressure [4]: provide protection in a rat hypoxia model of hypertension
efficacy in acute renal ischemia (acute renal ischemia): effective in models of acute renal ischemia
ET-1-induced changes in gastric mucosal hemodynamics and ET-1-induced gastric ulceration [6]: found to be an antagonist toward the ET-1-induced changes in gastric mucosal hemodynamics as well as on ET-1-induced gastric ulceration

IC50 (human ETA R): 2.8 nM
IC50 (human ETB R): 12000 nM
IC50 ([1]; ET-1 0.3 nM, test compound 1 nM to 1 μM, 30 minutes): 10 nM
Compound: COc1ccc(C2(OCCN3CCOCC3)OC(=O)C(c3ccc4c(c3)OCO4)=C2Cc2cc(OC)c(OC)c(OC)c2)cc1 (centres unmarked) [Example 1]

IC50 (human ETA R): 12 nM
IC50 (human ETB R): > 2500 nM
Compound: COc1ccc(C2(OCCCN(C)C)OC(=O)C(c3ccc4c(c3)OCO4)=C2Cc2cc(OC)c(OC)c(OC)c2)cc1 (centres unmarked) [Example 3, 3-Benzo[1,3]dioxol-5-yl-5-(3-dimethylamino-propoxy)-5-(4-methoxy-phenyl)-4-(3,4,5-trimethoxy-benzyl)-5H-furan-2-one]

IC50 (human ETA R): 0.3 nM
IC50 (human ETB R): 1080 nM
Compound: COc1ccc(C2(OCCN(C)C)OC(=O)C(c3ccc4c(c3)OCO4)=C2Cc2cc(OC)c(OC)c(OC)c2)cc1 (centres unmarked) [Example 4, 3-Benzo[1,3]dioxol-5-yl-5-(2-dimethylamino-ethoxy)-5-(4-methoxy-phenyl)-4-(3,4,5-trimethoxy-benzyl)-5H-furan-2-one]

IC50 (human ETA R): 1.7 nM
IC50 (human ETB R): 700 nM
Compound: COc1ccc(C2(OCCN3CCOCC3)OC(=O)C(c3cc(OC)c4c(c3)OCO4)=C2Cc2cc(OC)c(OC)c(OC)c2)cc1 (centres unmarked) [Example 5, 3-(7-Methoxy-benzo[1,3]dioxol-5-yl)-5-(4-methoxy-phenyl)-5-(2-morpholin-4-yl-ethoxy)-4-(3,4,5-trimethoxy-benzyl)-5H-furan-2-one]

IC50 (human ETA R): 2.6 nM
IC50 (human ETB R): 2200 nM
Compound: COc1ccc(C2(OCCN(C)C)OC(=O)C(c3cc(OC)cc(OC)c3)=C2Cc2cc(OC)c(OC)c(OC)c2)cc1 (centres unmarked) [Example 6]

Compound: COc1ccc(C2(O)OC(=O)C(c3ccc4c(c3)OCO4)=C2Cc2ccccc2)cc1 (centres unmarked) [PD 155080]
prostate smooth muscle function (prostate smooth muscle): found to mediate prostate smooth muscle function in vivo

Compound: COc1ccc(C2(O)OC(=O)C(c3ccc4c(c3)OCO4)=C2Cc2cc(OC)c(OC)c(OC)c2)cc1 (centres unmarked) [PD 156707]
protection / increase in pulmonary vascular resistance and pulmonary arterial pressure [4]: provide protection in a rat hypoxia model of hypertension
volume of ischemic damage in the cerebral hemisphere [7]: significantly reduced

Compound: COc1cccc(Oc2c(NS(=O)(=O)c3ccc(C(C)(C)C)cc3)ncnc2OCCO)c1 [Ro 46-2005]
early cerebral vasospasm following SAH (cerebral vasospasm [8]): shown to prevent early cerebral vasospasm

Compound: CCCOc1ccc2c(c1)C(c1ccc(OC)cc1OCCO)C(C(=O)O)C2c1ccc2c(c1)OCO2 (centres unmarked) [SB 217242]
ischemic brain injury (ischemic brain injury): Reduction of ischemic brain injury

Compound: FR 139317
vasoconstriction of the basilar artery [9]: significantly inhibited the vasoconstriction of the basilar artery
